# Earlier results as cited in patent US11154521B2 (Acer Therapeutics Inc., priority 2016, dated 2021).
# What was measured:
# torsinA = conditions: Cho et al. PLoS One 2014
# [1] = healthy adults
# [2] = tested on: cultured human muscle fibers; conditions: Nogalska et al. 2014
mean terminal half-life [1],γ-secretase activity [2],Compound,ER stress and inhibited cAMP response to forskolin induced by torsinA mutation (torsinA),Aβ42 and its oligomers [2],lysosomal activity [2],muscle-fiber vacuolization [2],proinflammatory molecules and reactive oxygen species (ROS) (activated glial cells)
–,–,O=C(O)CCCc1ccccc1 [4-phenylbutyrate],corrected,–,–,–,–
48 min,decrease,sodium phenylbutyrate,–,decrease,improve,prevent,suppress
